Results taken from patent publication US5679712A, “Substituted benzoylguanidines, process for their preparation, their use as a pharmaceutical or diagnostic, and pharmaceutical containing them” (priority 1995, dated 1997).
Where a name gives a salt, the structure may show the parent alone.

Tests used:
[1] = biological target: T1, Na^+ /H^+ exchanger of rabbit erythrocytes (Oryctolagus cuniculus, UniProt P23791); experiment: Inhibition of the Na^+/H^+ exchanger of rabbit erythrocytes (amiloride-sensitive sodium influx, flame photometry); assay type: cell-based, rabbit (New Zealand White); conditions: cholesterol-fed rabbits, hyperosmolar salt/sucrose medium, pH 7.4, 37° C.
T1 construct: endogenous in cells; host or cells: erythrocytes (whole blood samples) of New Zealand White rabbits (Ivanovas) fed 2% cholesterol
T1 sequence (P23791 whole entry): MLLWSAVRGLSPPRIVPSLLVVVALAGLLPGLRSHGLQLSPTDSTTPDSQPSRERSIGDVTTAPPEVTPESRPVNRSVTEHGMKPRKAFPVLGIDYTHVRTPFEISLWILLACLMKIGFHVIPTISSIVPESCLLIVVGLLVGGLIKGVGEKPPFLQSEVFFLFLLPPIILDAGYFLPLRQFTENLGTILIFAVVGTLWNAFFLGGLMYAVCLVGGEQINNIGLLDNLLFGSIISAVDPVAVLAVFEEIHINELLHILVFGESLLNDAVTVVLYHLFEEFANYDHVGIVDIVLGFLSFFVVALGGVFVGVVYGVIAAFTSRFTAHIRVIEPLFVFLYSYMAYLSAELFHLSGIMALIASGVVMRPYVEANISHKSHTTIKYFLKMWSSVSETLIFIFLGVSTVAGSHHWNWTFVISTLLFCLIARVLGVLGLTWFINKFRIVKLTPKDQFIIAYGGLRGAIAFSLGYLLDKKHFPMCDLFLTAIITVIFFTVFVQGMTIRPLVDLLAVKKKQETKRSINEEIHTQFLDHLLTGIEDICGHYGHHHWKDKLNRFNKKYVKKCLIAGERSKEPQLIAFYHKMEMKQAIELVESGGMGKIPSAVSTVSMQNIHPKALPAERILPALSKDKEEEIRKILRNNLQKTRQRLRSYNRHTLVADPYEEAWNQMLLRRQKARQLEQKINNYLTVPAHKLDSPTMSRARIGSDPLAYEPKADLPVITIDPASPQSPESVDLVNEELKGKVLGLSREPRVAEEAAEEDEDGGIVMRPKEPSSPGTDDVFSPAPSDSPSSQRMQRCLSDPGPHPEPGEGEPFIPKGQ
Description: Inhibition of the Na^+ /H^+ exchanger of rabbit erythrocytes
New Zealand White rabbits (Ivanovas) were given a standard diet containing 2% cholesterol for six weeks in order to activate Na^+ /H^+ exchange and thus to be able to determine, by flame photometry, the influx of Na^+ into the erythrocytes by way of Na^+ /H^+ exchange. The blood was removed from the aural arteries and rendered incoagulable with 25 IU of potassium heparin. A portion of each sample was used to determine the hematocrit in duplicate by centrifugation. Aliquots of 100 μl in each case were used for measuring the initial content of Na^+ in the erythrocytes.
In order to determine the amiloride-sensitive sodium influx, 100 μl of each blood sample were in each case incubated in 5 ml of a hyperosmolar salt/sucrose medium (mmol/l: 140 NaCl, 3 KCl, 150 sucrose, 0.1 ouabain, 20 tris-hydroxymethylaminomethane) at pH 7.4 and 37° C. After that, the erythrocytes were washed three times with ice-cold MgCl2 /ouabain solution (mmol/l: 112 MgCl2, 0.1 ouabain), and hemolyzed in 2.0 ml of distilled water. The intracellular content of sodium was determined by flame photometry.
The net influx of Na^+ was calculated from the difference between the initial sodium values and the sodium content of the erythrocytes following incubation. The amiloride-inhibitable sodium influx was obtained from the difference in the sodium content of the erythrocytes following incubation with and without 3×10^-4 mol/l amiloride. The same procedure was used for the compounds according to the invention.

rats' hearts = conditions: isolated rat hearts; cited from earlier work

Structure (SMILES) | IC50 [1] [µM] | potency relative to amiloride, ventricular fibrillation model (rats' hearts)
CC(=O)c1cc(C(=O)N=C(N)N)ccc1OC(C)C [Example 3, 3-Acetyl-4-isopropoxybenzoylguanidine hydrochloride] | 1.1 | –
CC(=O)c1cc(C(=O)N=C(N)N)ccc1O [Example 1, 3-Acetyl-4-hydroxybenzoylguanidine] | 2 | –
CCN(c1nc(N)c(C(=O)NC(=N)N)nc1Cl)C(C)C [ethylisopropylamiloride] | – | even more potent than amiloride itself
CC(=O)c1cc(C(=O)N=C(N)N)ccc1OCc1ccccc1 [Example 4, 3-Acetyl-4-benzyloxybenzoylguanidine hydrochloride] | 1.2 | –
COc1ccc(C(=O)N=C(N)N)cc1C(C)=O [Example 2, 3-Acetyl-4-methoxybenzoylguanidine hydrochloride] | 1 | –
